Measured values: patent publication US20230219986A1, “NOVEL AMINOPYRIMIDINE EGFR INHIBITOR” (QILU PHARMACEUTICAL CO., LTD., priority 2020, published 2023)
Like-named read-outs stand apart in the source and are kept apart here.

Assays:
Type in all cases: cell-based
[1] = target: Ba/F3 De119/T790M/C797S EGFR triple mutant cell line (Homo sapiens, UniProt P00533, T790M/C797S, cells depend on it, form not given); test: Cell proliferation inhibition experiment (CellTiter-Glo), Ba/F3 De119/T790M/C797S; conditions: Ba/F3 Del19/T790M/C797S EGFR triple mutant cells, 72 hours, Cell Titer-Glo; read-out: Ba/F3 (Del19/T790M/C797S) IC50
Protocol: (§1) 3) 30 nL of gradient diluted compound was transferred into the 384-well experimental plate using Echo 550 (Labcyte) at a DMSO final concentration of 0.1%, and the culture plate was incubated in a cell incubator for 72 hours (37° C., 5% CO2).
(§2) 4) 30 μL of Cell Titer-Glo reagent was added to each well and left for 30 minutes at room temperature and protected from light.
(§3) 5) Envision microplate reader (PerkinElmer) detected chemiluminescence signals.
(§4) 6) GraphPad Prism 8 software was used for data analysis to obtain the IC50 of the compounds of the present disclosure and the positive control.

[2] = system: EGFR wild-type cell line A431; test: Cell proliferation inhibition experiment (CellTiter-Glo), A431; conditions: Homo sapiens, A431 cells, Cell Titer-Glo, read-out: A431 EGFR WT IC50
Protocol: A431 cells, purchased from ATCC.
1) A431 cells were inoculated in a 384-well culture plate at a density of 800 cells per well, 30 μL per well, placed in a cell incubator, and cultured for 24 hours (37° C., 5% CO2).
as §1, §2, §3, §4

[3] = target: Ba/F3 L858R/T790M/C797S EGFR triple mutant cell line (Homo sapiens, UniProt P00533, T790M/C797S/L858R, cells depend on it); test: Cell proliferation inhibition experiment (CellTiter-Glo), Ba/F3 L858R/T790M/C797S; conditions: 72 hours, Cell Titer-Glo, read-out: Ba/F3 (L858R/T790M/C797S) IC50
Protocol: as §1, §2, §3, §4

Chain of Ba/F3 De119/T790M/C797S EGFR triple mutant cell line (P00533 with tags, fused parts or gaps DEL746-750/T790M/C797S, form open): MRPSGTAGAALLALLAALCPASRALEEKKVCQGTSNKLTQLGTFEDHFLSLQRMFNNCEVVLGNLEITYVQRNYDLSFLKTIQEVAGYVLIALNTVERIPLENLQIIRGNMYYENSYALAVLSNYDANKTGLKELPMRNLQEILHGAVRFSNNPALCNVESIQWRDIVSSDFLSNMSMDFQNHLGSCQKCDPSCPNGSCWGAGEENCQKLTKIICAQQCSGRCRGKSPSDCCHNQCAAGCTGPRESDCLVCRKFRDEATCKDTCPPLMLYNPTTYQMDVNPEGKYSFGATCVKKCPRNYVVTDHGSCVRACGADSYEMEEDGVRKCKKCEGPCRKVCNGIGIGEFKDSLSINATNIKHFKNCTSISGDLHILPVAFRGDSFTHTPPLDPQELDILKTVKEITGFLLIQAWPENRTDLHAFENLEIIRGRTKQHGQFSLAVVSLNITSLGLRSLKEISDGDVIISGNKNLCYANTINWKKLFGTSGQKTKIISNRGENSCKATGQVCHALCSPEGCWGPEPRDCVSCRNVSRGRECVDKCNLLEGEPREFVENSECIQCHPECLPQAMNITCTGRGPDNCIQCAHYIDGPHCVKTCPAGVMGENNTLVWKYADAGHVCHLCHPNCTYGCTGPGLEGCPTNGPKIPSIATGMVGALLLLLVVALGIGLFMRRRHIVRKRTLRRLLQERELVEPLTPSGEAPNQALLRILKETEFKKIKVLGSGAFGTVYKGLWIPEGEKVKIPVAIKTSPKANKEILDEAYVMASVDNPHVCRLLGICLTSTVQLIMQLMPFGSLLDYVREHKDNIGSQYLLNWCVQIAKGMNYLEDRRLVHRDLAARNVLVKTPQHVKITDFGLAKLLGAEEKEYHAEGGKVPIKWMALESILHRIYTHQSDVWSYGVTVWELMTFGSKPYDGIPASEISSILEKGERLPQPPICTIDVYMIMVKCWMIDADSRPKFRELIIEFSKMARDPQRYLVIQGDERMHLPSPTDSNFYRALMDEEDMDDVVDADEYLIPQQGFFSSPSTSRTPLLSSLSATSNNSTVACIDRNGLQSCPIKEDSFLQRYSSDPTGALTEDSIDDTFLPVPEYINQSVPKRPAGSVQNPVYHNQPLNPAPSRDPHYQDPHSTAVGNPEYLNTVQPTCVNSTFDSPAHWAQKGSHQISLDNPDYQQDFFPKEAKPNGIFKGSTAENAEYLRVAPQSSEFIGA
Chain of Ba/F3 L858R/T790M/C797S EGFR triple mutant cell line (P00533 whole entry T790M/C797S/L858R): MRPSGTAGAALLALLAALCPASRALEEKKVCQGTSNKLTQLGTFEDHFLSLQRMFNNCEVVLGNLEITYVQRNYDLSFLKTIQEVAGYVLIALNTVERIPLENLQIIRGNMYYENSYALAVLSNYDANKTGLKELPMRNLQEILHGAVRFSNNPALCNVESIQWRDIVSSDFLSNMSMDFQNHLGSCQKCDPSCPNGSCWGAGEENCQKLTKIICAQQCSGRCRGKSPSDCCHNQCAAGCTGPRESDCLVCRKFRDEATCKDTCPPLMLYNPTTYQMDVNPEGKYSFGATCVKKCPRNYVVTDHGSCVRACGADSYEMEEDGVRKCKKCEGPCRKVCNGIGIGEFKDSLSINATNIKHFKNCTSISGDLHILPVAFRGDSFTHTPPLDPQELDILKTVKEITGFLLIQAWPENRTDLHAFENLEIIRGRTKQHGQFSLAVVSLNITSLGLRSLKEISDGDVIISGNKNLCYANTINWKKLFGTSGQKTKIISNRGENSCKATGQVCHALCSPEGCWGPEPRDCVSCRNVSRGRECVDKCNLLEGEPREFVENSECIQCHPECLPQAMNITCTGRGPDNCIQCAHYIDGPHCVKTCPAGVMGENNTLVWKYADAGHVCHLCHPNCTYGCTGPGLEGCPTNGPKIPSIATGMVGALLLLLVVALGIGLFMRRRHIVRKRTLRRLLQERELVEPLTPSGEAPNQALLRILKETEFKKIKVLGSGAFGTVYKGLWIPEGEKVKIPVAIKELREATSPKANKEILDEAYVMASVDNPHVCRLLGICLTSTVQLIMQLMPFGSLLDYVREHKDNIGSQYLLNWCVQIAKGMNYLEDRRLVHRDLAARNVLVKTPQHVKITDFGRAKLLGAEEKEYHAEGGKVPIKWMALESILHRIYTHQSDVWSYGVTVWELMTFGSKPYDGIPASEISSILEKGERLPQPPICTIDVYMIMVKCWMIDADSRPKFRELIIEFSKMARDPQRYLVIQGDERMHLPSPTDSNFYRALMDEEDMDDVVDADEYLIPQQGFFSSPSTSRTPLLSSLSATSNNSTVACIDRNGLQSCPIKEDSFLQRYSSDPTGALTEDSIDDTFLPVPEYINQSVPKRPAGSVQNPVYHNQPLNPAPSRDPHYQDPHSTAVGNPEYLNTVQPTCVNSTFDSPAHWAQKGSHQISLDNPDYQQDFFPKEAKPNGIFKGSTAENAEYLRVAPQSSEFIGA

`COc1cc(N2CCC(N3CCN(C)CC3)CC2)ccc1Nc1ncc(Cl)c(Nc2ccccc2P(C)(C)=O)n1` [Brigatinib, reference compound] gave a GI50 [1] of 103 nM, an IC50 ([2]; A-431, 72 hours) of 771 nM and a GI50 [3] of 320 nM.

`COc1c(Nc2ncc(Br)c(Nc3ccc4nccnc4c3P(C)(C)=O)n2)cc(-c2cnn(C)c2)c(N2CCOCC2)c1C` [Compound 68, (6-((5-bromo-2-((2-methoxy-3-methyl-5-(1-methyl-1H-pyrazol-4-yl)-4-morpholinylphenyl)amino)pyrimidin-4-yl)amino)quinoxalin-5-yl)dimethylphosphine oxide] gave a GI50 [1] of 114 nM, an IC50 ([2]; A-431, 72 h) of 1390 nM and a GI50 [3] of 372 nM.

Work on `CN1CCN(c2ncc(Nc3ncc(Br)c(Nc4ccc5nccnc5c4P(C)(C)=O)n3)cc2-c2cnn(C)c2)CC1` [Compound 70, (6-((5-bromo-2-((5-(1-methyl-1H-pyrazol-4-yl)-6-(4-methylpiperazin-1-yl)pyridin-3-yl)amino)pyrimidin-4-yl)amino)quinoxalin-5-yl)dimethylphosphine oxide] yielded a GI50 [1] of 117 nM, an IC50 ([2]; A-431, 72 h) of 157 nM and a GI50 [3] of 348 nM.

`COc1nc(N(C)CCN(C)C)c(-c2cnn(C)c2)cc1Nc1ncc(Br)c(Nc2ccc3nccnc3c2P(C)(C)=O)n1` [compound 45] was tested, and the GI50 [1] was 7.65 nM and the IC50 ([2]; A-431, 72 h) was 102 nM.

`Cn1cc(-c2cc(Nc3ncc(Br)c(Nc4ccc5nccnc5c4P(C)(C)=O)n3)cc(F)c2N2CCOCC2)cn1` [compound 46] gave a GI50 [1] of 6.71 nM, an IC50 ([2]; A-431, 72 h) of 67.2 nM and a GI50 [3] of 11.7 nM.

`Cn1cc(-c2cc(Nc3ncc(Br)c(Nc4ccc5nccnc5c4P(C)(C)=O)n3)ccc2N2CCOCC2)cn1` [compound 48] was tested, and the GI50 [1] was 3.02 nM, the IC50 ([2]; A-431, 72 h) was 51.1 nM and the GI50 [3] was 6.03 nM.

`COc1ccc(-n2ccnc2)cc1Nc1ncc(Br)c(Nc2ccc3nccnc3c2P(C)(C)=O)n1` [compound 50] was tested, and the GI50 [1] was 34.1 nM and the IC50 ([2]; A-431, 72 h) was 508 nM.

`CNC(=O)c1ccccc1Nc1nc(Nc2cc(-c3cnn(C)c3)c(N3CCOCC3)cc2OC)ncc1Br` [compound 52] was tested, and the GI50 [1] was 26.7 nM and the IC50 ([2]; A-431, 72 h) was 158 nM.

`COc1cc(N2CCOCC2)c(-c2cnn(C)c2)cc1Nc1ncc(Br)c(Nc2ccccc2S(=O)(=O)C(C)C)n1` [compound 54] gave a GI50 [1] of 103 nM and an IC50 ([2]; A-431, 72 h) of 638 nM.

`COc1cc(P(C)(C)=O)c(-c2cnn(C)c2)cc1Nc1ncc(Br)c(Nc2ccc3nccnc3c2P(C)(C)=O)n1` [compound 55] showed a GI50 [1] of 1230 nM and an IC50 ([2]; A-431, 72 h) of at least 5000 nM.

`COc1cc(N2CCOCC2)c(C#N)cc1Nc1ncc(Br)c(Nc2ccc3nccnc3c2P(C)(C)=O)n1` [compound 59] was tested, and the GI50 [1] was 26.2 nM and the IC50 ([2]; A-431, 72 h) was 345 nM.

Compound `COc1cc(N2CCOCC2)c(-c2cncnc2)cc1Nc1ncc(C)c(Nc2ccc3nccnc3c2P(C)(C)=O)n1` [compound 60] has a GI50 [1] of 89.3 nM and an IC50 ([2]; A-431, 72 h) of 658 nM.

For `COc1cc(N2CCOCC2)c(-n2cccn2)cc1Nc1ncc(Br)c(Nc2ccc3nccnc3c2P(C)(C)=O)n1` [compound 61], the GI50 [1] was 312 nM, the IC50 ([2]; A-431, 72 h) was 6580 nM and the GI50 [3] was 794 nM.

Compound `COc1cc(N2CCOCC2)c(-c2cnn(C)c2)c(F)c1Nc1ncc(Br)c(Nc2ccc3nccnc3c2P(C)(C)=O)n1` [compound 62] has a GI50 [1] of 73.6 nM, an IC50 ([2]; A-431, 72 h) of 3380 nM and a GI50 [3] of 195 nM.

Work on `COc1nc(N2CCOCC2)c(-c2cnn(C)c2)cc1Nc1ncc(C)c(Nc2ccc3nccnc3c2P(C)(C)=O)n1` [compound 63] yielded a GI50 [1] of 14.3 nM, an IC50 ([2]; A-431, 72 h) of 331 nM and a GI50 [3] of 24.9 nM.

In the case of `COc1nc(N2CCN(C)CC2)c(-c2cnn(C)c2)cc1Nc1ncc(Br)c(Nc2ccc3nccnc3c2P(C)(C)=O)n1` [compound 65], the GI50 [1] is reported as 6.68 nM, the IC50 ([2]; A-431, 72 h) is reported as 72.4 nM and the GI50 [3] is reported as 17.3 nM.

Compound `COc1cc(N2CCCCC2)c(-c2cnn(C)c2)cc1Nc1ncc(Br)c(Nc2ccc3nccnc3c2P(C)(C)=O)n1` [compound 66] has a GI50 [1] of 3.04 nM, an IC50 ([2]; A-431, 72 h) of 575 nM and a GI50 [3] of 10.8 nM.

Compound `COc1nc(N2CCC3(CC2)COC3)c(-c2cnn(C)c2)cc1Nc1ncc(Br)c(Nc2ccc3nccnc3c2P(C)(C)=O)n1` [compound 67] has a GI50 [1] of 42.3 nM, an IC50 ([2]; A-431, 72 hours) of 622 nM and a GI50 [3] of 59.2 nM.

For `COc1cc(N2CCOCC2)c(-n2cc(C)cn2)cc1Nc1ncc(Br)c(Nc2ccc3nccnc3c2P(C)(C)=O)n1` [compound 73], the GI50 [1] was 326 nM, the IC50 ([2]; A-431, 72 h) was 3260 nM and the GI50 [3] was 536 nM.

Work on `CN1CCC2(CC1)CCN(c1ccc(Nc3ncc(Br)c(Nc4ccc5nccnc5c4P(C)(C)=O)n3)cc1-c1cnn(C)c1)CC2` [compound 76] yielded a GI50 [1] of 5.4 nM, an IC50 ([2]; A-431, 72 h) of 20.7 nM and a GI50 [3] of 9.96 nM.

For `COc1cc(N2CCOCC2)c(-c2ccnn2C)cc1Nc1ncc(Br)c(Nc2ccc3nccnc3c2P(C)(C)=O)n1` [compound 90], the GI50 [1] was 251 nM, the IC50 ([2]; A-431, 72 h) was 4390 nM and the GI50 [3] was 446 nM.

`COc1cc(N2CCOCC2)c(-c2cncn2C)cc1Nc1ncc(Br)c(Nc2ccc3nccnc3c2P(C)(C)=O)n1` [compound 91] gave a GI50 [1] of 278 nM, an IC50 ([2]; A-431, 72 h) of 3550 nM and a GI50 [3] of 430 nM.

`COc1c(Nc2ncc(Br)c(Nc3ccc4nccnc4c3P(C)(C)=O)n2)cc(-c2cnn(C)c2)c(N2CCC(N(C)C)CC2)c1F` [compound 95] showed a GI50 [1] of 15.7 nM, an IC50 ([2]; A-431, 72 h) of 96.7 nM and a GI50 [3] of 40.9 nM.

In the case of `COc1cc(N2CCC(N(C)C)CC2)c(-c2cnn(C)c2)cc1Nc1ncc(Br)c(Nc2ccc3nccnc3c2P(C)(C)=O)n1` [compound 96], the GI50 [1] is reported as 3.52 nM, the IC50 ([2]; A-431, 72 h) is reported as 44.2 nM and the GI50 [3] is reported as 9.39 nM.

For `COc1cc(N2CCN(CCO)CC2)c(-c2cnn(C)c2)cc1Nc1ncc(Br)c(Nc2ccc3nccnc3c2P(C)(C)=O)n1` [compound 99], the GI50 [1] was 40.6 nM, the IC50 ([2]; A-431, 72 h) was 209 nM and the GI50 [3] was 104 nM.

For `Cc1cc(Nc2ncc(Br)c(Nc3ccc4nccnc4c3P(C)(C)=O)n2)cc(-c2cnn(C)c2)c1N1CCOCC1` [compound 100, (6-((5-bromo-2-((3-methyl-5-(1-methyl-1H-pyrazol-4-yl)-4-morpholinylphenyl)amino)pyrimidin-4-yl)amino)quinoxalin-5-yl)dimethylphosphine oxide], the GI50 [1] was 2.87 nM, the IC50 ([2]; A-431, 72 h) was 29.1 nM and the GI50 [3] was 6.2 nM.

`COc1cc(N2CCN(C)C(C)(C)C2)c(-c2cnn(C)c2)cc1Nc1ncc(Br)c(Nc2ccc3nccnc3c2P(C)(C)=O)n1` [compound 108] showed a GI50 [1] of 12.5 nM, an IC50 ([2]; A-431, 72 h) of 92.8 nM and a GI50 [3] of 24.5 nM.

In the case of `COc1cc(N2CC3(COC3)C2)c(-c2cnn(C)c2)cc1Nc1ncc(Br)c(Nc2ccc3nccnc3c2P(C)(C)=O)n1` [compound 109], the GI50 [1] is reported as 46.3 nM, the IC50 ([2]; A-431, 72 h) is reported as 547 nM and the GI50 [3] is reported as 62.8 nM.

`COc1cc(N2CCC(C)(N)CC2)c(-c2cnn(C)c2)cc1Nc1ncc(Br)c(Nc2ccc3nccnc3c2P(C)(C)=O)n1` [compound 113] showed a GI50 [1] of 74.5 nM, an IC50 ([2]; A-431, 72 h) of 189 nM and a GI50 [3] of 176 nM.

In the case of `COc1cc(N2CCNCC2)c(-c2cnn(C)c2)cc1Nc1ncc(Br)c(Nc2ccc3nccnc3c2P(C)(C)=O)n1` [compound 117], the GI50 [1] is reported as 41 nM, the IC50 ([2]; A-431, 72 h) is reported as 157 nM and the GI50 [3] is reported as 120 nM.

In the case of `COc1cc(C2=CCN(C)CC2)c(-c2cnn(C)c2)cc1Nc1ncc(Br)c(Nc2ccc3nccnc3c2P(C)(C)=O)n1` [compound 177], the GI50 [1] is reported as 25.6 nM, the IC50 ([2]; A-431, 72 h) is reported as 59.3 nM and the GI50 [3] is reported as 35 nM.
